Measurements taken from US8309522B2, “Neuromedin and FN-38 peptides for treating psychiatric diseases” (Amylin Pharmaceuticals, LLC, priority 2007, dated 2012).
Ends that are not written are not given here.

Tests used:
[1] = test system: mice; test: Stress-induced hyperthermia (SIH) assay; type: in vivo; conditions: 60 minutes before the assay, FIG. 1
Description: (§1) Animal behavior assays were performed to test for anxiolytic and antipsychotic effects of FN-38 (SEQ ID NO:5) administration. […] These specific behavioral tests are known to be sensitive to anxiolytic or antipsychotic drugs. For these assays, FN-38 was administered to mice at doses ranging from 0.1 to 10 mg/kg, intraperitoneally, and their performance in the assay was assessed.
Body temperature and emotionality are correlated in humans and stress commonly induces an increase in body temperature (hyperthermic response) in rodents. The thermic response to stress is commonly used as an indication of enhanced emotionality or anxiety in rodents and stress-induced hyperthermia (SIH) in mice is considered to have predictive validity for certain human anxiety/stress disorders. The SIH assay assesses the effect of anxiolytics or test agents on SIH and measures the intrinsic effects of these drugs on core body temperature of the animal. See, for example, Zethof et al., 1994, Physiol. Behav. 55:109-115. Anxiolytics blunt the increase in body temperature, or hyperthermic response, following stress exposure. Buspirone is a partial 5-HT1A agonist and a known anxiolytic agent. […] The stress from the first measurement induces hyperthermia which was measured by the second temperature measurement. […]

[2] = test system: mice; test: Prepulse inhibition (PPI) test; type: in vivo; conditions: 78 and 82 dB prepulse, FIG. 4
Description: as §1
The prepulse inhibition (PPI) test measures the reflex response to externally applied auditory stimulation (acoustic startle response) and is related to the deficiency in sensory-motor gating capacity seen in schizophrenia. The acoustic startle reflex is a very basic response to strong exteroceptive stimuli and is widely used to assess sensorimotor reactivity in animals and humans. A weak auditory stimulus (prepulse, 74-82 dB) given prior to the strong acoustic stimulus (120 dB) blunts the startle response. This blunting of the startle response is referred to as prepulse inhibition. See, for example, Conti et al., 2005, Behavioral Neuroscience 119:1052-1060. […]
Mice were injected with the test agent (FN-38 (SEQ ID NO:5) at 0.1, 1.0 or 10 mg/kg, or vehicle (water)) […] to the test or with haloperidol at 1 mg/kg or vehicle (10% DMSO) 30 minutes prior to the test. […] The amount of the animal's “reaction” to the strong stimulus was recorded. […]

[3] = test system: mice; test: Marble burying; type: in vivo; conditions: FN-38 10 mg/kg intraperitoneally, 15-30 minutes prior to the test; statistically significant; FIG. 2
Description: as §1
Marble burying is used as a model for both anxiety and obsessive-compulsive disorder. See, for example, Chaki et al., 2003, J. Pharmacol. Exp. Ther. 304:818-826. Anxiolytics suppress marble burying activity. Benzodiazepine chlordiazepoxide (CDP) is a known anxiolytic agent. Mice were injected with the test agent (FN-38 (SEQ ID NO:5) at 0.1, 1.0 or 10 mg/kg, 15 mg/kg CDP, or vehicle (water)) 15-30 minutes prior to the test. Mice were then placed individually in clean cages containing 5-cm of hard wood bedding and 20 marbles spaced evenly in rows of five. The number of marbles buried in 30 minutes was recorded. Results of this assay are shown in FIG. 2 where * is P<0.05 vs. vehicle control. […] These reductions in marble burying were statistically significant.

[4] = test system: mice; test: Phencyclidine (PCP)-induced locomotion test; type: in vivo; conditions: FN-38 10 mg/kg, 15-30 minutes prior to 5 mg/kg PCP; activity recorded for 60 minutes; FIG. 3
Description: as §1
The PCP-induced locomotion test is used with open field activity chambers and measures locomotion, rearing, and stereotypic activity under amphetamine/PCP-induced conditions. The test has predictive validity for some antipsychotic drugs that normalize the hyperactivity and stereotypic behavior seen with amphetamine and PCP. See, for example, Williams et al., 2006, Prog. Neuropsychopharmacol. Biol. Psychiatry, 30:239-243. Mice were injected with the test agent (FN-38 (SEQ ID NO:5) at 0.1, 1.0 or 10 mg/kg, or vehicle (water)) 15-30 minutes prior injection with 5 mg/kg PCP. The animals were then placed in the center of an open field and activity was recorded for 60 minutes.

[5] = test system: rats; conditions: central administration to rats; cited from earlier work

## O=C1CC2(CCCC2)CC(=O)N1CCCCN1CCN(c2ncccn2)CC1 [buspirone, reference compound]
[1]; 15 mg/kg buspirone, positive control
  stress-induced hyperthermia (Delta Temperature): blunted the SIH response

## O=C(CCCN1CCC(O)(c2ccc(Cl)cc2)CC1)c1ccc(F)cc1 [halperidol, haloperidol, reference compound]
[2]; haloperidol at 1 mg/kg, 30 minutes prior to the test, positive control
  percent of prepulse inhibition: increased the percent of prepulse inhibition

## FLFHYSKTQKLGKSNVVEELQSPFASQSRGYFLFRPRN (FLFHYSKTQKLGKSNVVEELQSPFASQSRGYFLFRPRN-NH2; listed as Homo sapiens) [FN-38]
[1]; FN-38 10 mg/kg intraperitoneally, P<0.05 vs. vehicle control
  stress-induced hyperthermia (Delta Temperature): blunted the SIH response
[3]
  number of marbles buried in 30 minutes: reduced the number of marbles buried
[4]
  PCP-induced hyper-locomotion (total distance traveled: total, central, and peripheral): significantly reduced this hyper-locomotion response
[2]; FN-38 10 mg/kg, 120 dB stimulus
  percent of prepulse inhibition: increased the percent of prepulse inhibition

## neuromedin U (YKVNEYQGPVAPSGGFFLFRPRN-NH2; UniProt P12760 144-166, looked up) [NMU, neuromedin U, centrally administered to rats in cited literature]
[5]
  food intake: inhibited food intake
